This is an account of results in patent publication US10857138B2, “Pharmaceutical compositions comprising antibacterial agents” (WOCKHARDT LIMITED, priority 2014, dated 2020).

The subject of experiment [1] is Klebsiella pneumoniae B 88 strain producing NDM-1, SHV, TEM and CTXM beta-lactamase enzymes. Nature of the experiment: Time kill study against K. pneumoniae B 88. The arrangement: Effect on bacterial count when used alone: dose or concentration left out as unconfirmed. Particulars: for Bacterial count (Log10CFU/ml) 2 hours / Bacterial count (Log10CFU/ml) 4 hours / Bacterial count (Log10CFU/ml) 6 hours / Bacterial count (Log10CFU/ml) 8 hours: each agent at 4 mcg/ml, alone or in combination. It counts as cell-based. The method, then: (§1) In a typical time kill study, the freshly grown cultures were diluted to the required cell density (initial starting inoculum) in Cation adjusted Muller Hinton broth medium (BD, USA). The antibacterial agents (either alone or in combination) at the required concentrations were added into the culture-containing medium. The samples were incubated under shaking condition (120 rpm) at 37° C. Enumeration of viable bacterial count was done every 2 hour by diluting in normal saline and plating on to the Tryptic Soya Agar plates (BD, USA). The plates were incubated for 24 hours to arrive at the viable bacterial count. […] In general, the decrease of 1 Log CFU/ml, corresponds to 90% killing of bacteria. Similarly, 2 Log CFU/ml reductions indicates to 99% killing of bacteria and 3 Log CFU/ml reductions is equal to 99.9% killing of bacteria.
(§2) The assay without any antibacterial agent was taken as control.

The test system of experiment [2] is Klebsiella pneumoniae NCTC 13443 strain producing NDM-1, SHV and TEM beta-lactamase enzymes. Put plainly: Time kill study against K. pneumoniae NCTC 13443. The class given is cell-based. Particulars: for Bacterial count (Log10CFU/ml) 2 hours / Bacterial count (Log10CFU/ml) 4 hours / Bacterial count (Log10CFU/ml) 6 hours / Bacterial count (Log10CFU/ml) 8 hours: each agent at 4 mcg/ml, alone or in combination. The method, then:
as §1, §2

In the case of `O=C1N2C[C@@H](CC[C@H]2c2nnc([C@@H]3CCCN3)o2)N1OS(=O)(=O)O` [Compound J, trans-sulphuric acid mono-[2-(5-((S)-pyrrolidin-2-yl)-[1,3,4]-oxadiazol-2-yl)-7-oxo-1,6-diazabicyclo[3.2.1]-octan-6-yl] ester], in experiment [1], the “Bacterial count (Log10CFU/ml) 2 hours” value is 8.35 Log10CFU/ml, the “Bacterial count (Log10CFU/ml) 4 hours” value was determined as 8.5 Log10CFU/ml, the “Bacterial count (Log10CFU/ml) 6 hours” value was 8.8 Log10CFU/ml and the “Bacterial count (Log10CFU/ml) 8 hours” value came out at 9.2 Log10CFU/ml. Further, the “Effect on bacterial count when used alone” value in experiment [1] (used alone at 4 mcg/ml, throughout the duration of the study) is “not effective to decrease the bacterial count”. Besides, in experiment [2], the “Bacterial count (Log10CFU/ml) 2 hours” value stood at 8.35 Log10CFU/ml, the “Bacterial count (Log10CFU/ml) 4 hours” value came out at 8.5 Log10CFU/ml, the “Bacterial count (Log10CFU/ml) 6 hours” value amounted to 8.8 Log10CFU/ml and the “Bacterial count (Log10CFU/ml) 8 hours” value is listed as 9.2 Log10CFU/ml. Further, the “Effect on bacterial count when used alone” value in experiment [2] (used alone at 4 μg/ml, throughout the duration of the study) is on record as “not effective to decrease the bacterial count”.
On to `C[C@@H](O)[C@H]1C(=O)N2C(C(=O)O)=C(SCCN=CN)C[C@H]12` [Imipenem, reference compound], for which, in experiment [1], the “Bacterial count (Log10CFU/ml) 2 hours” value came out at 8.28 Log10CFU/ml, the “Bacterial count (Log10CFU/ml) 4 hours” value is 8.7 Log10CFU/ml, the “Bacterial count (Log10CFU/ml) 6 hours” value turned out to be 8.9 Log10CFU/ml and the “Bacterial count (Log10CFU/ml) 8 hours” value came out at 9.2 Log10CFU/ml. Besides, in experiment [2], the “Bacterial count (Log10CFU/ml) 2 hours” value is 8.35 Log10CFU/ml, the “Bacterial count (Log10CFU/ml) 4 hours” value came to 8.78 Log10CFU/ml, the “Bacterial count (Log10CFU/ml) 6 hours” value is recorded as 8.88 Log10CFU/ml and the “Bacterial count (Log10CFU/ml) 8 hours” value stood at 9.09 Log10CFU/ml.
